Source: ChEMBL document CHEMBL5120966, “Spicatulides A-G, Phenolic-Monoterpenoid Hybrids from Chloranthus spicatus” (J Nat Prod, 2022)

Tests used:
HepG2 [1] = assay: Inhibition of lipogenesis in human HepG2 cells assessed as reduction in sterol synthesis; format: functional, cell-based; conditions: dose 12.5-50 µM, DDE = dose-dependent effect
HepG2 [2] = assay: Inhibition of lipogenesis in human HepG2 cells assessed as reduction in fatty acids synthesis; format: functional, cell-based; conditions: dose 0.1-1 µM, DDE = dose-dependent effect

SMILES	dose-dependent inhibition (qualitative) (HepG2 [1])	inhibition (HepG2 [2])
COC(=O)[C@@]1(O)c2cc(O)cc(C/C=C(\C)CCC=C(C)C)c2O[C@@]2(C)C=C[C@H](C(C)C)C[C@@H]12	Dde	
COC(=O)C[C@@]1(C/C=C(\C)CCC=C(C)C)CC(=O)C=C[C@@H]1O	Dde	Dde
COC(=O)Cc1cc(O)cc2c1O[C@@](C)(CCC=C(C)C)C=C2	Dde	
COC(=O)[C@H]1c2cc(O)cc(C/C=C(\C)CCC=C(C)C)c2O[C@@]2(C)[C@@H](O)C=C(C(C)C)C[C@@H]12	Dde	
